Laboratory results published in patent publication US20230310473A1, “METHOD FOR TREATING OBESITY AND/OR HYPERTENSION” (THE ROYAL INSTITUTION FOR THE ADVANCEMENT OF …, priority 2022, published 2023).

Columns and labels:
[1] = High fat diet (HFD) obesity mouse model: body weight, body composition, blood glucose, lipid profile; assay type: in vivo, mice; conditions: for body weight: HFD-fed C57/b6 male mice, levan 250 mg/Kg by gavage, last 4 weeks of 12 weeks HFD
Experimental: (§1) Eight-week-old C57/b6 male mice (stock number 000664, Jackson Labs) were fed with a high fat diet (HFD) for 12 weeks in the presence and absence of levan having β-[2,6]-glycosidic linkages. More specifically, the mice were fed either standard diet (SD; 5.8% fat, 44.3% carbohydrate, 19.1% protein) or high fat (HFD; 60% fat, 20% carbohydrate, 20% protein) diet for 12 weeks. Levan having β-[2,6]-glycosidic linkages was administered by gavage (250 mg/Kg) for the last 4 weeks of HFD feeding for a subgroup of mice, the experimental group. Bodyweight, blood glucose, body composition, and lipid profile were determined. Vascular function and endothelial function markers were studied in aorta and mesenteric resistance arteries (MRA). Furthermore, body weight was measured weekly, lean and fat mass were measured by EchoMRl, blood glucose and lipid plasma levels were measured, and the thoracic aorta and mesenteric resistance arteries (MRA) were harvested and used for western blot, quantitative real time (qRT-) PCR and vascular reactivity using the wire myograph.
Results, reported as means ± standard error (SE), were analyzed using GraphPad Prism 9 (GraphPad Software, San Diego, CA). T-tests and one-way ANOVA were used to compare certain paired parameters. Unless specified otherwise, the values for p are *p<0.05; **p<0.01; ***p<0.001; and ****p<0.0001.

thoracic aorta = assay: Vascular reactivity (wire myograph) of thoracic aorta from HFD obese mice; assay type: in vivo
Description: FIG. 3A a graph showing the original traces for the harvesting of the thoracic aorta from mice C, HFD and EXP, and exposing the aortas to acetylcholine (Ach) in vitro using the wire myograph (cumulative doses of Ach after precontraction to phenylephrine).
FIG. 3B is a graph of the aorta relaxation percentage in function of the logarithm of the concentration of acetylcholine (endothelium dependent relaxation to Ach) for control mice (1), EXP mice (2) and HFD mice (3).
FIG. 3C is a graph of the aorta relaxation percentage in function of the logarithm of the concentration of sodium nitroprusside (SNP) (endothelium independent relaxation to SNP) for control mice (1), EXP mice (2) and HFD mice (3).
as §1

[2] = system: mesenteric resistance arteries (MRA); assay: Vascular reactivity (wire myograph) of mesenteric resistance arteries from HFD obese mice; assay type: in vivo
Description: FIG. 4B is a graph of the mesenteric relaxation percentage in function of the logarithm of the concentration of acetylcholine (endothelium dependent relaxation to Ach) for control mice (1), EXP mice (2) and HFD mice (3).
FIG. 4C is a graph of the mesenteric relaxation percentage in function of the logarithm of the concentration of sodium nitroprusside (SNP) (endothelium independent relaxation to SNP) for control mice (1), EXP mice (2) and HFD mice (3).
as §1

[3] = system: inflammation, oxidative stress and endoplasmic reticulum stress markers in thoracic aorta; assay: Western blot and qRT-PCR markers in thoracic aorta of HFD obese mice; assay type: in vivo
Description: FIG. 3D is a western blot of phospho-endothelial nitric oxide synthase (P-eNOS), […] endothelial nitric oxide synthase (T-eNOS), binding protein (BIP), C/EBP homologous protein (CHOP), tumor necrosis factor alpha (TNFα), P65 and glyceraldehyde-3-phosphate dehydrogenase (GAPDH), for the control mice, the HFD mice and the EXP mice.
FIG. 3W is a heat map showing all the markers in thoracic aorta from control mice and mice fed with HFD in the presence and absence of low levan β-[2,6]-glycosidic linkages treatment.
as §1

[4] = system: inflammation, oxidative stress and endoplasmic reticulum stress markers in mesenteric arteries; assay: Western blot markers in mesenteric arteries of HFD obese mice; assay type: in vivo
Description: FIG. 4D is a western blot of P-eNOS, T-eNOS, BIP, CHOP, TNFα, P65 and GAPDH, in mesenteric arteries for the control mice, the HFD mice and the EXP mice.
as §1

[5] = system: inflammation, oxidative stress and ER stress markers in proximal colon; assay: mRNA markers in proximal colon of HFD obese mice; assay type: in vivo
Description: FIG. 5L is a heat map showing all the markers in proximal colon from control mice and mice fed with HFD in the presence and absence of low levan β-[2,6]-glycosidic linkages treatment.
as §1

[6] = system: inflammation, oxidative stress and ER stress markers in distal colon; assay: mRNA markers in distal colon of HFD obese mice; assay type: in vivo
Description: FIG. 6L is a heat map showing all the markers in distal colon from control mice and mice fed with HFD in the presence and absence of low levan β-[2,6]-glycosidic linkages treatment.
as §1

[7] = Liver function (ALT, ALP) in HFD obese mice; assay type: in vivo; conditions: mice with obesity; levan 250 mg/Kg gavage 4 weeks
[8] = Systolic blood pressure in angiotensin II hypertensive mice; assay type: in vivo; conditions: mice with hypertension (angiotensin II); vs angiotensin II without levan
Description: FIG. 8A is a graph showing the systolic blood pressure (BP) in function of time for control mice administered vehicle (1), EXP mice administered angiotensin II and levan (2) and mice administered angiotensin II without levan (3).

aorta = assay: Vascular contraction and relaxation of aorta from angiotensin II hypertensive mice; assay type: in vivo
Description: FIG. 8C is a graph showing the aorta contraction percentage in response to the log of phenylephrine (PE) concentration for control mice administered vehicle (1), EXP mice administered angiotensin II and levan (2) and mice administered angiotensin II without levan (3).
FIG. 8D is a graph showing the aorta contraction percentage in response to the log of thromboxane A analog (TXA) concentration for control mice administered vehicle (1), EXP mice administered angiotensin II and levan (2) and mice administered angiotensin II without levan (3).
FIG. 8E is a graph showing the aorta contraction percentage in response to the log of angiotensin II (Ang II) concentration for control mice administered vehicle (1), EXP mice administered angiotensin II and levan (2) and mice administered angiotensin II without levan (3).
FIG. 8F is a graph showing the aorta relaxation percentage in function of the logarithm of the concentration of acetylcholine (endothelium dependent relaxation to Ach) for control mice administered vehicle (1), EXP mice administered angiotensin II and levan (2) and mice administered angiotensin II without levan (3).
FIG. 8G is a graph of the aorta relaxation percentage in function of the logarithm of the concentration of sodium nitroprusside (SNP) (endothelium independent relaxation to SNP) for control mice administered vehicle (1), EXP mice administered angiotensin II and levan (2) and mice administered angiotensin II without levan (3).

[9] = system: inflammation, oxidative stress and endoplasmic reticulum stress markers in thoracic aorta; assay: Western blot and mRNA markers in thoracic aorta of angiotensin II hypertensive mice; assay type: in vivo
Description: FIG. 8H is a western blot of IP3R1,p-Protein kinase-like endoplasmic reticulum kinase (PERK), t-PERK, P-eNOS, T-eNOS, BIP, NOX1, TNFα, P65, cytochrome c and GAPDH, in thoracic aorta for control mice administered vehicle (CTL), EXP mice administered angiotensin II and levan (A+L), and mice administered angiotensin II without levan (ANG).

[10] = system: inflammation, oxidative stress and ER stress markers in proximal colon; assay: mRNA markers in proximal colon of angiotensin II hypertensive mice; assay type: in vivo
Description: FIG. 9K is a heat map showing the markers in proximal colon from normotensive mice and hypertensive mice treated with and without low levan β-[2,6]-glycosidic linkages treatment.

[11] = system: inflammation, oxidative stress and ER stress markers in distal colon; assay: mRNA markers in distal colon of angiotensin II hypertensive mice; assay type: in vivo
Description: FIG. 10K is a heat map showing the markers in distal colon from normotensive mice and hypertensive mice treated with and without low levan β-[2,6]-glycosidic linkages treatment.

[12] = Liver function (ALT, ALP) in angiotensin II hypertensive mice; assay type: in vivo
Description: FIG. 11A is a graph showing the level of Alanine Aminotransferase/SGPT (ALT) in control mice administered vehicle, EXP mice administered angiotensin II and levan, and mice administered angiotensin II without levan.
FIG. 11B is a graph showing the level of alkaline phosphatase (ALP) in control mice administered vehicle, EXP mice administered angiotensin II and levan, and mice administered angiotensin II without levan.

[13] = HFD mice, levan 250 mg/Kg gavage 4 weeks, vs untreated HFD mice
[14] = mice with obesity, levan 250 mg/Kg gavage 4 weeks
[15] = obese mice, endothelium dependent relaxation after precontraction to phenylephrine
[16] = listed as low MW levan β-[2,6]-glycosidic linkages
[17] = listed as low molecular levan having β-[2,6]-glycosidic linkages

levan [low MW levan]
significantly decreased: fat mass % ([1]; HFD mice, levan 250 mg/Kg gavage 4 weeks, EchoMRI, vs untreated HFD mice) | HDL [1, 13] | LDL [1, 13] | blood glucose [1, 13] | total cholesterol [1, 13] | triglyceride [1, 13]
did not cause damage: damage to the liver function (ALT, ALP) [12]
increased: lean mass % ([1]; HFD mice, levan 250 mg/Kg gavage 4 weeks, EchoMRI, vs untreated HFD mice, listed as low MW levan β-[2,6]-glycosidic linkages)
not toxic: toxicity of the dose used [7] | toxicity of dose and treatment period [12]
significantly increased: lean mass % ([1]; HFD mice, levan 250 mg/Kg gavage 4 weeks, EchoMRI, vs untreated HFD mice, listed as low molecular weight levan having β-[2,6]-glycosidic linkages)
significantly reduced: endoplasmic reticulum stress [3] | inflammation [3] | oxidative stress [3] | endoplasmic reticulum stress ([4]; listed as low levan) | inflammation ([4]; listed as low levan) | oxidative stress ([4]; listed as low levan) | endoplasmic reticulum stress [9] | inflammation [9] | oxidative stress [9]
reduced: body weight ([1]; vs untreated HFD mice, listed as Low MW levan β-[2,6]-glycosidic linkages) | ER stress [5, 17] | inflammation [5, 17] | oxidative stress [5, 17] | ER stress [6, 17] | inflammation [6, 17] | oxidative stress [6, 17] | blood pressure [8] | ER stress [10] | inflammation [10] | oxidative stress [10] | ER stress [11] | inflammation [11] | oxidative stress [11]
reducing: exacerbated vascular contraction (aorta; hypertensive mice, aorta contraction to PE, TXA, Ang II)
improving: vascular relaxation (aorta; hypertensive mice, aorta)
decreased: body weight ([1]; vs untreated HFD mice, listed as low molecular weight levan having β-[2,6]-glycosidic linkages) | endoplasmic reticulum stress [3, 16] | inflammation [3, 16] | oxidative stress [3, 16] | endoplasmic reticulum stress [4, 16] | inflammation [4, 16] | oxidative stress [4, 16] | ER stress [5, 16] | inflammation [5, 16] | oxidative stress [5, 16] | ER stress [6, 16] | inflammation [6, 16] | oxidative stress [6, 16]
preserve: endothelial function of conductance artery (thoracic aortic) (thoracic aorta; [14]) | endothelial function of resistance arteries (mesenteric artery) [2, 14]
improved: lipid profile ([1]; HFD mice with obesity, levan 250 mg/Kg gavage 4 weeks) | vascular function in aorta (thoracic aorta; [14]) | vascular response to acetylcholine (Ach), aorta (thoracic aorta; [15]) | vascular function in mesenteric arteries [2, 14] | vascular response to acetylcholine (Ach), MRA [2, 15] | liver function (ALT, ALP) [7] | vascular function in the aorta (aorta; mice with hypertension (angiotensin II))
